Earlier results as cited in patent US20020040034A1, “Methods for treating allergic asthma using descarboethoxyloratadine” (priority 1997, published 2002).

How the values were obtained:
[1] = tested on: allergic bronchospasm; details: milligram by milligram basis
[2] = tested on: melanoma and fibrosarcoma tumors

Structure (SMILES)	Inhibition of allergic bronchospasm, potency compared with terfenadine [1]	Association with tumor growth [2]
CCOC(=O)N1CCC(=C2c3ccc(Cl)cc3CCc3cccnc32)CC1 [Loratadine]	four times more potent than terfenadine	associated with growth of both melanoma and fibrosarcoma tumors
COc1ccc(CCN2CCC(Nc3nc4ccccc4n3Cc3ccc(F)cc3)CC2)cc1 [astemizole]		associated with growth of both melanoma and fibrosarcoma tumors
